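Abbreviation: GI50, concentration required for 50% inhibition of growth. The concentration for full growth arrest is given as TGI.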
Assays:
Experiment in all cases: NCI-60 cell line screen, 384-well format
UO-31 renal = tested on: UO-31 renal
MALME-3M melanoma = tested on: MALME-3M melanoma
SW-620 colon = tested on: SW-620 colon
NCI-H322M lung = tested on: NCI-H322M lung
TK-10 renal = tested on: TK-10 renal
SK-MEL-5 melanoma = tested on: SK-MEL-5 melanoma
KM12 colon = tested on: KM12 colon
U251 glioblastoma = tested on: U251 glioblastoma
HCT-15 colon = tested on: HCT-15 colon
SF-539 CNS = tested on: SF-539 CNS
SR leukemia = tested on: SR leukemia
MDA-MB-468 breast = tested on: MDA-MB-468 breast
SNB-75 CNS = tested on: SNB-75 CNS
MDA-MB-435 melanoma = tested on: MDA-MB-435 melanoma
HT29 colon = tested on: HT29 colon
HL-60(TB) leukemia = tested on: HL-60(TB) leukemia
OVCAR-4 ovarian = tested on: OVCAR-4 ovarian
DU-145 prostate = tested on: DU-145 prostate
SK-MEL-28 melanoma = tested on: SK-MEL-28 melanoma
M14 melanoma = tested on: M14 melanoma
SK-MEL-2 melanoma = tested on: SK-MEL-2 melanoma
NCI-H226 lung = tested on: NCI-H226 lung
K-562 leukemia = tested on: K-562 leukemia
PC-3 prostate = tested on: PC-3 prostate
HOP-62 NSCLC = tested on: HOP-62 NSCLC
HCT-116 colon = tested on: HCT-116 colon
A549 NSCLC = tested on: A549 NSCLC
MOLT-4 leukemia = tested on: MOLT-4 leukemia
MCF7 breast = tested on: MCF7 breast
HOP-92 NSCLC = tested on: HOP-92 NSCLC
786-0 renal = tested on: 786-0 renal
MDA-MB-231 breast = tested on: MDA-MB-231 breast
RXF 393 renal = tested on: RXF 393 renal
T-47D breast = tested on: T-47D breast
OVCAR-3 ovarian = tested on: OVCAR-3 ovarian
NCI-H23 lung = tested on: NCI-H23 lung
NCI-H522 lung = tested on: NCI-H522 lung
SNB-19 CNS = tested on: SNB-19 CNS
ACHN renal = tested on: ACHN renal
BT-549 breast = tested on: BT-549 breast
SF-295 CNS = tested on: SF-295 CNS
SK-OV-3 ovarian = tested on: SK-OV-3 ovarian
SF-268 CNS = tested on: SF-268 CNS
IGROV1 ovarian = tested on: IGROV1 ovarian
UACC-62 melanoma = tested on: UACC-62 melanoma
CAKI-1 renal = tested on: CAKI-1 renal
OVCAR-5 ovarian = tested on: OVCAR-5 ovarian
SN12C renal = tested on: SN12C renal
UACC-257 melanoma = tested on: UACC-257 melanoma
EKVX NSCLC = tested on: EKVX NSCLC
COLO 205 colon = tested on: COLO 205 colon
NCI-H460 NSCLC = tested on: NCI-H460 NSCLC
HS 578T breast = tested on: HS 578T breast
A498 renal = tested on: A498 renal
OVCAR-8 ovarian = tested on: OVCAR-8 ovarian

C=CC(=O)N1CCN([C@@H](CC2CC2)c2ccc([C@H](C)Nc3ncc4c(n3)N(CC)C(=O)OC4)cc2)CC1
GI50 (UO-31 renal): 13.9 µM
TGI (UO-31 renal): 26.9 µM
GI50 (MALME-3M melanoma): 19 µM
TGI (MALME-3M melanoma): 33.1 µM
GI50 (SW-620 colon): 13.5 µM
TGI (SW-620 colon): 26.4 µM
GI50 (NCI-H322M lung): 14 µM
TGI (NCI-H322M lung): 27.3 µM
GI50 (TK-10 renal): 4.36 µM
TGI (TK-10 renal): 16.6 µM
GI50 (SK-MEL-5 melanoma): 13.3 µM
TGI (SK-MEL-5 melanoma): 30.1 µM
GI50 (KM12 colon): 15.1 µM
TGI (KM12 colon): 28.5 µM
GI50 (U251 glioblastoma): 15.4 µM
TGI (U251 glioblastoma): 33.4 µM
GI50 (HCT-15 colon): 12 µM
TGI (HCT-15 colon): 28.9 µM
GI50 (SF-539 CNS): 11.4 µM
TGI (SF-539 CNS): 23.5 µM
GI50 (SR leukemia): 2940 nM
TGI (SR leukemia): 8.8 µM
GI50 (MDA-MB-468 breast): 2820 nM
TGI (MDA-MB-468 breast): 7.69 µM
GI50 (SNB-75 CNS): 7.22 µM
TGI (SNB-75 CNS): 20 µM
GI50 (MDA-MB-435 melanoma): 14.3 µM
TGI (MDA-MB-435 melanoma): 27.4 µM
GI50 (HT29 colon): 14.8 µM
TGI (HT29 colon): 28 µM
GI50 (HL-60(TB) leukemia): 1820 nM
TGI (HL-60(TB) leukemia): 3.32 µM
GI50 (OVCAR-4 ovarian): 13.3 µM
TGI (OVCAR-4 ovarian): 26.1 µM
GI50 (DU-145 prostate): 12.7 µM
TGI (DU-145 prostate): 25.3 µM
GI50 (SK-MEL-28 melanoma): 16.6 µM
TGI (SK-MEL-28 melanoma): 30.2 µM
GI50 (M14 melanoma): 14.3 µM
TGI (M14 melanoma): 27.3 µM
GI50 (SK-MEL-2 melanoma): 10.3 µM
TGI (SK-MEL-2 melanoma): 22 µM
GI50 (NCI-H226 lung): 15.9 µM
TGI (NCI-H226 lung): 36.1 µM
GI50 (K-562 leukemia): 3.7 µM
TGI (K-562 leukemia): 16 µM
GI50 (PC-3 prostate): 10.8 µM
TGI (PC-3 prostate): 22.7 µM
GI50 (HOP-62 NSCLC): 10 µM
TGI (HOP-62 NSCLC): 27.9 µM
GI50 (HCT-116 colon): 6.57 µM
TGI (HCT-116 colon): 19.7 µM
GI50 (A549 NSCLC): 25.3 µM
TGI (A549 NSCLC): > 100 µM
GI50 (MOLT-4 leukemia): 1890 nM
TGI (MOLT-4 leukemia): 3.43 µM
GI50 (MCF7 breast): 9.04 µM
TGI (MCF7 breast): > 100 µM
GI50 (HOP-92 NSCLC): 8.05 µM
TGI (HOP-92 NSCLC): 20.7 µM
GI50 ([…]-0 renal): 12.9 µM
TGI (786-0 renal): 25.7 µM
GI50 (MDA-MB-231 breast): 13.9 µM
TGI (MDA-MB-231 breast): 26.8 µM
GI50 (RXF 393 renal): 2520 nM
TGI (RXF 393 renal): 12.5 µM
GI50 (T-47D breast): 13.9 µM
TGI (T-47D breast): 28 µM
GI50 (OVCAR-3 ovarian): 10.2 µM
TGI (OVCAR-3 ovarian): 21.8 µM
GI50 (NCI-H23 lung): 15.1 µM
TGI (NCI-H23 lung): 61 µM
GI50 (NCI-H522 lung): 1360 nM
TGI (NCI-H522 lung): 4.12 µM
GI50 (SNB-19 CNS): 17.2 µM
TGI (SNB-19 CNS): 31.1 µM
GI50 (ACHN renal): 13.9 µM
TGI (ACHN renal): 26.8 µM
GI50 (BT-549 breast): 5.83 µM
TGI (BT-549 breast): 18.6 µM
GI50 (SF-295 CNS): 35.3 µM
TGI (SF-295 CNS): > 100 µM
GI50 (SK-OV-3 ovarian): 17.9 µM
TGI (SK-OV-3 ovarian): 37.9 µM
GI50 (SF-268 CNS): 14.4 µM
TGI (SF-268 CNS): 27.5 µM
GI50 (IGROV1 ovarian): 10.3 µM
TGI (IGROV1 ovarian): 22.1 µM
GI50 (UACC-62 melanoma): 10.6 µM
TGI (UACC-62 melanoma): 22.4 µM
GI50 (CAKI-1 renal): 11.4 µM
TGI (CAKI-1 renal): 23.6 µM
GI50 (OVCAR-5 ovarian): 16.1 µM
TGI (OVCAR-5 ovarian): 30.4 µM
GI50 (SN12C renal): 16.2 µM
TGI (SN12C renal): 29.8 µM
GI50 (UACC-257 melanoma): 13.8 µM
TGI (UACC-257 melanoma): 26.8 µM
GI50 (EKVX NSCLC): 16.4 µM
TGI (EKVX NSCLC): > 100 µM
GI50 (COLO 205 colon): 17.6 µM
TGI (COLO 205 colon): 31.5 µM
GI50 (NCI-H460 NSCLC): 5.15 µM
TGI (NCI-H460 NSCLC): 17 µM
GI50 (HS 578T breast): 6.9 µM
TGI (HS 578T breast): 19.6 µM
GI50 (A498 renal): 12 µM
TGI (A498 renal): 24.4 µM
GI50 (OVCAR-8 ovarian): 12.7 µM
TGI (OVCAR-8 ovarian): 26.1 µM
